Reference: publication PMC6160999, “Pharmacokinetics, Tissue Distribution and Excretion of a Novel Diuretic (PU-48) in Rats” (Pharmaceutics, 2018)
Values joined by “and” are separate entries in the source; they are usually repeats but may differ in a detail not shown here. Equal entries are not always repeated.

Assay: Bile excretion in bile duct-cannulated rats
Format: in vivo
Conditions: bile duct-cannulated rat, oral PU-48 SNEDDS 12 mg/kg
Protocol: Internal standard (IS, 25 μL) was added to 50 μL plasma, urine, or bile sample in a clean tube, placed into a water bath at 37 °C, and dried under a gentle stream of nitrogen gas, followed by the addition of 0.5 mL of ethyl acetate for liquid-liquid extraction. The mixture was shaken by a vortex mixer for 3 min, and then centrifuged at 8000 rpm (4200× g) for 10 min at 4 °C. After centrifugation, the upper organic phase was transferred into a clean centrifuge tube and then dried it again. The combined upper organic phases were evaporated to dryness at 37 °C under a gentle stream of nitrogen gas. The residue was reconstituted with 50 μL acetonitrile and then centrifuged at 13,000 rpm (12,000× g) for 10 min at 4 °C, the upper liquid was transferred into sample vials. Finally, 5 μL aliquots were injected into the LC–MS/MS system to analyze. Each tissue samples were homogenized in normal saline (0.9% NaCl, 1:3, w/v), and then centrifuged at 10,000× g for 10 min to get the supernatant. Other steps were the same as plasma sample preparation.
Six male rats were given single orally administration of PU-48 (12 mg/kg, 1.2 mg/mL in the SNEDDS formulation) and housed in separate stainless-steel metabolism cages. Both feces and urine samples were collected at 0–1, 1–2, 2–4, 4–6, 6–8, 8–12, 12–24, 24–48, 48–72 and 72–96 h. In a separate study, bile samples were collected 0–1, 1–2, 2–4, 4–6, 6–8, 8–12, 12–24, 24–48, 48–72 and 72–96 h after oral administration of PU-48 (12 mg/kg, 1.2 mg/mL in the SNEDDS formulation) to six bile duct-cannulated rats.

- Accumulative Excretion Amount, bile (0–1 h): 78.5 ± 60.3 ng
- Accumulative Excretion Percentage, bile (0–1 h): 0.0027 ± 0.0021%
- Excretion Amount, bile (0–1 h): 78.5 ± 60.3 ng
- PU-48 Concentration in bile (0–1 h): 143.8 ± 72.5 ng/mL
- Accumulative Excretion Amount, bile (1–2 h): 153.6 ± 115.5 ng
- Accumulative Excretion Percentage, bile (1–2 h): 0.0054 ± 0.0041%
- Excretion Amount, bile (1–2 h): 75.2 ± 70.3 ng
- PU-48 Concentration in bile (1–2 h): 123.1 ± 44.3 ng/mL
- Accumulative Excretion Amount, bile (2–4 h): 218.9 ± 128.9 ng
- Accumulative Excretion Percentage, bile (2–4 h): 0.0076 ± 0.0046%
- Excretion Amount, bile (2–4 h): 65.3 ± 39.8 ng
- PU-48 Concentration in bile (2–4 h): 84.7 ± 20.1 ng/mL
- Accumulative Excretion Percentage, bile (4–6 h): 0.0085 ± 0.0044%
- Excretion Amount, bile (4–6 h): 24.5 ± 14.3 ng
- PU-48 Concentration in bile (4–6 h): 47.6 ± 19.4 ng/mL
- Accumulative Excretion Percentage, bile (6–8 h): 0.0091 ± 0.0042%
- Excretion Amount, bile (6–8 h): 18.7 ± 13.4 ng
- PU-48 Concentration in bile (6–8 h): 41.1 ± 21.9 ng/mL
- Accumulative Excretion Amount, bile (8–12 h): 301.8 ± 105.8 ng
- Accumulative Excretion Percentage, bile (8–12 h): 0.0105 ± 0.0037%
- Excretion Amount, bile (8–12 h): 39.7 ± 45.9 ng
- PU-48 Concentration in bile (8–12 h): 33.3 ± 17.4 ng/mL
- Accumulative Excretion Amount, bile (12–24 h): 339.9 ± 122.8 ng
- Accumulative Excretion Percentage, bile (12–24 h): 0.0118 ± 0.0042%
- Excretion Amount, bile (12–24 h): 38.1 ± 37.4 ng
- PU-48 Concentration in bile (12–24 h): 33.4 ± 15.5 ng/mL
- Accumulative Excretion Amount, bile (24–48 h): 350.7 ± 124.1 ng
- Accumulative Excretion Percentage, bile (24–48 h): 0.0122 ± 0.0043%
- Excretion Amount, bile (24–48 h): 10.8 ± 3.2 ng
- PU-48 Concentration in bile (24–48 h): 9.4 ± 5.4 ng/mL
- Accumulative Excretion Amount, bile (48–72 h): 355.5 ± 120.8 ng
- Accumulative Excretion Percentage, bile (48–72 h): 0.0123 ± 0.0042%
- Excretion Amount, bile (48–72 h): 4.8 ± 4.7 ng
- PU-48 Concentration in bile (48–72 h): 5.1 ± 3.7 ng/mL
- Accumulative Excretion Amount, bile (72–96 h (within 96 h)): 357.5 ± 120.1 ng
- Excretion Amount, bile (72–96 h): 2.0 ± 1.8 ng
- PU-48 Concentration in bile (72–96 h): 1.4 ± 0.9 ng/mL
Compound: COC(=O)c1sc2nc3ccc(OC)cc3cc2c1N [PU-48, Methyl 3-amino-6-methoxythieno [2,3-b] quinoline-2-carboxylate]
- Accumulative Excretion Percentage, bile (72–96 h (within 96 h)): 0.0124 ± 0.0041% and 0.0124 ± 0.004% and 0.0124%
